Test results reported in US20240100013A1, “SOTAGLIFLOZIN FOR IMPROVING LEFT ATRIAL FUNCTION” (CHARITÉ-UNIVERSITÄTSMEDIZIN BERLIN, priority 2021, published 2024).

System: LA cardiomyocytes
Assay: Ca2+ transient (CaT) measurements (Fura-2) in LA cardiomyocytes, incl. glucose starvation/reintroduction and glycolytic inhibition
Assay type: cell-based, rat
Source text: Cardiomyocyte isolation. LA and LV cardiomyocytes were isolated using enzymatic digestion as previously described in detail. See Bode D, Guthof T, Pieske B M, Heinzel F R, Hohendanner F: “Isolation of Atrial Cardiomyocytes from a Rat Model of Metabolic Syndrome-related Heart Failure with Preserved Ejection Fraction,” J Vis Exp 2018(137).
Solutions and chemicals. Chemicals were obtained from Sigma-Aldrich (St. Louis, MO, USA) unless noted otherwise. The dual SGLT1/2 inhibitor sotagliflozin was provided by Lexicon Pharmaceuticals (The Woodlands, TX, USA). Fluorescent dyes Fura-2 AM, Rhod-2 AM, MitoTracker red, MitoTracker green, TMRE and H2-DCF were obtained from Thermo Fisher Scientific (Waltham, MA, USA). Tyrode solution contained (in mM): 130 NaCL, 4 KCl, 2 CaCl, 1 MgCl2, 10 Glucose, 10 HEPES; pH adjusted to 7.4 with NaOH. LA cardiomyocytes were plated on laminin-coated glass coverslips. 20 mM caffeine was added to Tyrode solution to induce sarcoplasmic reticulum (SR) Ca^2+ release and obtain a measure of SR Ca^2+ content. […] For glucose starvation (FIGS. 2H-J, 5A-D), glucose of Tyrode solution was replaced with 30 mM mannitol. For sub-sequent glucose reintroduction, mannitol was replaced with 30 mM glucose (“high glucose condition”).
Ca^2+ measurements and sarcomere shortening. Radiometric Ca^2+ measurements (excitation: 340 nm and 385 nm, emission: 510±10 nm; [Ca^2+] expressed as the ratio R=F340/F380) were performed either with a CytoCypher MultiCell System (CytoCypher BV, Netherlands; FIGS. 1C-F, 2D-G, 4A-F) or an Axiovert 200 microscope (Zeiss, Oberkochen, Germany) fluorescence imaging assembly (FIGS. 2A-C, 2H-J, 3A-E, 6E-I). LA cardiomyocytes were loaded with Fura-2 for 30 min at room temperature, washed twice with Tyrode solution and transferred to the microscope. Experiments were conducted at 37° C. and CaT were recorded at steady state (following electric stimulation).
CaT and sarcomere shortening of LA and LV cardiomyocytes were recorded for 10 s at 3 Hz stimulation. See FIGS. 2D-G, 4A-F. Electric stimulation was turned off and spontaneous SR Ca^2+ release events (See Voigt N, Heijman J, Wang Q, Chiang D Y, Li N, Karck M, Wehrens X H T, Nattel S, Dobrev D: “Cellular and molecular mechanisms of atrial arrhythmogenesis in patients with paroxysmal atrial fibrillation,” Circulation 2014, 129(2):145-156) (SCaEs) immediately recorded for a duration of 10 s (FIG. 1C-F). In a sub-set of LA cells, CaT were recorded for 10 s at 1 Hz stimulation. Electric stimulation was turned off, the cells immediately exposed to 20 mM caffeine and the sub-sequent caffeine-induced CaT recorded for 10 s (FIG. 2A-C, 3A-E). Sodium-calcium exchanger (NCX) activity was calculated as previously described. See Hohendanner F, Walther S, Maxwell J T, Kettlewell S, Awad S, Smith G L, Lonchyna V A, Blatter L A: “Inositol-1,4,5-trisphosphate induced Ca^2+ release and excitation-contraction coupling in atrial myocytes from normal and failing hearts,” J Physiol 2015, 593(6):1459-1477.
Cells were treated with 2-deoxyglucose to inhibit glycolysis for a duration of 3 min, while maintaining steady stimulation at 1 Hz and CaT were recorded for another 10 s. A sub-set of cells was starved of glucose for 1 h at 37° C. CaT were recorded for 10 s at 1 Hz stimulation. See FIGS. 2H-J. Cells were exposed to glucose and constant electric pacing at 1 Hz was maintained. After 1 min, CaT transients were recorded for 10 s at 1 Hz stimulation.

[1] = HFpEF, 2-deoxyglucose, 3 min, 1 Hz
[2] = HFpEF, 3 Hz, 5 mM extracellular [Ca2+]
[3] = baseline, 1 Hz, 2 mM Ca2+, chronic treatment

In the case of `CCOc1ccc(Cc2cc([C@@H]3O[C@H](SC)[C@@H](O)[C@H](O)[C@H]3O)ccc2Cl)cc1` [sotagliflozin, (2S,3R,4R,5S,6R)-2-(4-chloro-3-(4-ethoxybenzyl)phenyl)-6-(methylthio)tetrahydro-2H-pyran-3,4,5-triol], the “increased CaT amplitude gain upon glycolytic inhibition” value [1] is reported as “prevented”, the “increased influx of diastolic Ca2+ upon glycolytic inhibition” value [1] is reported as “prevented” and the CaT amplitudes [2] is reported as “unchanged”. The “diastolic [Ca2+]” value [2] was “significant reduction”, the “glucose-mediated influx of diastolic Ca2+” value (HFpEF, 1 h glucose starvation, then 30 mM glucose) was “prevented” and the CaT amplitude [3] was “did not alter”. For the same molecule, the “diastolic [Ca2+]” value [3] was “did not alter”.
